Assay results: US20260124158A1, “COMPOSITIONS AND METHODS TO REDUCE BIOLOGICAL AGE OF AN ADULT ANIMAL” (Société des Produits Nestlé S.A., priority 2022, published 2026)

Tests used:
[1] = test system: muscle gastrocnemius of old mice; experiment: Muscle biological age by DNA methylation, pan tissue clock, in old mice; type: in vivo, mouse
Description: (§1) All animal experiments comply with the International Guiding Principles for Biomedical Research Involving Animals developed by the Council for International Organizations of Medical Sciences and the following guidelines for animal welfare. 24 old mice aged 18 months and 12 young mice aged 6 months were kept in a temperature-and humidity-controlled environment with a 12:12-h light-dark cycle. Mice had access to nesting and enrichment materials and were provided with ad libitum access to water and food.
(§2) Old mice were split in two groups and received either 20 mg/kg body weight of thymol or vehicle by gavage daily for 12 weeks, whereas young mice received the vehicle only (n=12). Animals found dead or euthanized at the humane endpoint for pain or physical distress, have been excluded from the analysis. At the end of the treatment, mice were euthanized with isoflurane after 2-hours fasting. Muscle gastrocnemius has been dissected samples and snap frozen in liquid nitrogen and stored at −80° C.
(§3) DNA extraction was performed on 100 mg of muscle using QIAGEN DNeasy Blood and Tissue kit (Cat. No: 69506) and following manufacturer recommendations. DNA was quantified using the DropSense technology (from Unchained Labs). […]
(§4) To calculate biological age, raw data have been analysed using algorithms (clocks) developed by the Clock Foundation. […] Data were plotted and analysed using GraphPad Prism 9. […]

[2] = test system: muscle gastrocnemius of old mice; experiment: Muscle biological age by DNA methylation, intervention muscle clock, in old mice; type: in vivo, mouse; details: 20 mg/kg/day for 12 weeks
Description: as §1, §2, §3, §4

Cc1ccc(C(C)C)c(O)c1 [thymol]
reduction of muscle biological age measured with the pan tissue clock ([1]; 20 mg/kg/day by gavage daily for 12 weeks, vs old vehicle): 20.3%
effect on biological age in old mice ([1]; 20 mg/kg/day for 12 weeks): significantly reduced biological age in old mice
effects on biological age using the interventions muscle clock [2]: confirmed
